# Results from ChEMBL document CHEMBL1201862, “PubChem BioAssay data set” (2004).
#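 Protocol summary: plate cells (96-well), add compound at 5 concentrations, incubate 48 h, interpolate endpoints linearly. GI50 is the concentration that inhibits growth by half.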 The source made the active and inactive calls. No stated cut-off is given here; in the data, active = GI50 up to about 1.1 µM and inactive = higher.
# Key:
# Experiment in all cases: DTP human tumour cell line panel, 48 h
# U-251 = system: U-251
# HOP-62 = system: HOP-62
# SF-539 = system: SF-539
# MOLT-4 = system: MOLT-4
# ACHN = system: ACHN
# NCI-H23 = system: NCI-H23
# Malme-3M = system: Malme-3M
# OVCAR-8 = system: OVCAR-8
# UACC-257 = system: UACC-257
# SK-MEL-5 = system: SK-MEL-5
# MDA-N = system: MDA-N
# SK-MEL-28 = system: SK-MEL-28
# NCI-H522 = system: NCI-H522
# OVCAR-3 = system: OVCAR-3
# SK-OV-3 = system: SK-OV-3
# A549 = system: A549
# 786-0 = system: 786-0
# IGROV-1 = system: IGROV-1
# SNB-75 = system: SNB-75
Structure (SMILES),GI50 (U-251),GI50 (HOP-62),GI50 (SF-539),GI50 (MOLT-4),GI50 (ACHN),GI50 (NCI-H23),GI50 (Malme-3M),GI50 (OVCAR-8),GI50 (UACC-257),GI50 (SK-MEL-5),GI50 (MDA-N),GI50 (SK-MEL-28),GI50 (NCI-H522),GI50 (OVCAR-3),GI50 (SK-OV-3),GI50 (A549),GI50 (786-0),GI50 (IGROV-1),GI50 (SNB-75)
C=C(C)CNCC(=C)C.Oc1c(Cl)c(Cl)c(Cl)c(Cl)c1Cl,17.9 µM (inactive),22 µM (inactive),17.6 µM (inactive),20.1 µM (inactive),21.6 µM (inactive),22.3 µM (inactive),17.4 µM (inactive),31.9 µM (inactive),> 100 µM (inactive),16.4 µM (inactive),18.7 µM (inactive),28.2 µM (inactive),22 µM (inactive),11 µM (inactive),43.4 µM (inactive),27.9 µM (inactive),19.4 µM (inactive),22.1 µM (inactive),16.6 µM (inactive)
COc1ccc(/C=C/c2nccc3ccccc23)cc1OC,> 10 µM (inactive),> 10 µM (inactive),> 10 µM (inactive),4.52 µM (inactive),> 10 µM (inactive),7.21 µM (inactive),> 10 µM (inactive),> 10 µM (inactive),> 10 µM (inactive),6.21 µM (inactive),> 10 µM (inactive),> 10 µM (inactive),> 10 µM (inactive),9.2 µM (inactive),> 10 µM (inactive),> 10 µM (inactive),> 10 µM (inactive),> 10 µM (inactive),> 10 µM (inactive)
Brc1ccc(C2CC3(c4ccccc4)ON=C(c4ccccc4)N3c3ccccc3S2)cc1 (stereo unspecified),> 100 µM (inactive),> 100 µM (inactive),> 100 µM (inactive),> 100 µM (inactive),> 100 µM (inactive),> 100 µM (inactive),> 100 µM (inactive),> 100 µM (inactive),> 100 µM (inactive),> 100 µM (inactive),> 100 µM (inactive),> 100 µM (inactive),> 100 µM (inactive),> 100 µM (inactive),> 100 µM (inactive),> 100 µM (inactive),> 100 µM (inactive),> 100 µM (inactive),> 100 µM (inactive)
CC(C)C1CSC2N1C(=O)C2(OCc1ccccc1)C1CC1 (stereo unspecified),> 100 µM (inactive),> 100 µM (inactive),> 100 µM (inactive),97.1 µM (inactive),> 100 µM (inactive),> 100 µM (inactive),> 100 µM (inactive),> 100 µM (inactive),> 100 µM (inactive),> 100 µM (inactive),> 100 µM (inactive),> 100 µM (inactive),> 100 µM (inactive),> 100 µM (inactive),> 100 µM (inactive),> 100 µM (inactive),> 100 µM (inactive),> 100 µM (inactive),97.7 µM (inactive)
COC(=O)NC(Nc1ccc(C)cc1)(C(F)(F)F)C(F)(F)F,> 100 µM (inactive),> 100 µM (inactive),> 100 µM (inactive),> 100 µM (inactive),> 100 µM (inactive),> 100 µM (inactive),> 100 µM (inactive),> 100 µM (inactive),> 100 µM (inactive),> 100 µM (inactive),> 100 µM (inactive),> 100 µM (inactive),> 100 µM (inactive),> 100 µM (inactive),> 100 µM (inactive),> 100 µM (inactive),> 100 µM (inactive),> 100 µM (inactive),> 100 µM (inactive)
Cn1c(=O)n2n(c1=O)C1C(=CC2)C2C=CC1n1c(=O)n(C)c(=O)n12 (stereo unspecified),> 100 µM (inactive),> 100 µM (inactive),> 100 µM (inactive),> 100 µM (inactive),> 100 µM (inactive),> 100 µM (inactive),> 100 µM (inactive),> 100 µM (inactive),> 100 µM (inactive),> 100 µM (inactive),> 100 µM (inactive),> 100 µM (inactive),> 100 µM (inactive),> 100 µM (inactive),> 100 µM (inactive),> 100 µM (inactive),> 100 µM (inactive),> 100 µM (inactive),> 100 µM (inactive)
O/N=C1\CCc2cc3c(cc21)CCC3,> 100 µM (inactive),> 100 µM (inactive),> 100 µM (inactive),> 100 µM (inactive),> 100 µM (inactive),> 100 µM (inactive),> 100 µM (inactive),> 100 µM (inactive),> 100 µM (inactive),> 100 µM (inactive),> 100 µM (inactive),> 100 µM (inactive),> 100 µM (inactive),> 100 µM (inactive),> 100 µM (inactive),> 100 µM (inactive),> 100 µM (inactive),> 100 µM (inactive),44.3 µM (inactive)
CC(C)(C)c1cc(C(O)(C(=O)O)C(=O)O)cc(C(C)(C)C)c1O,> 100 µM (inactive),> 100 µM (inactive),> 100 µM (inactive),> 100 µM (inactive),> 100 µM (inactive),> 100 µM (inactive),> 100 µM (inactive),> 100 µM (inactive),> 100 µM (inactive),> 100 µM (inactive),> 100 µM (inactive),> 100 µM (inactive),> 100 µM (inactive),> 100 µM (inactive),> 100 µM (inactive),> 100 µM (inactive),> 100 µM (inactive),> 100 µM (inactive),> 100 µM (inactive)
O=C(NCC(C(=O)OCc1ccccc1)C(=O)OCc1ccccc1)OCc1ccccc1,85.7 µM (inactive),> 100 µM (inactive),> 100 µM (inactive),19.2 µM (inactive),> 100 µM (inactive),59.3 µM (inactive),> 100 µM (inactive),> 100 µM (inactive),> 100 µM (inactive),35.9 µM (inactive),> 100 µM (inactive),> 100 µM (inactive),72.6 µM (inactive),> 100 µM (inactive),> 100 µM (inactive),63.8 µM (inactive),> 100 µM (inactive),> 100 µM (inactive),> 100 µM (inactive)
CN(C)CCCNC(=O)CCNC(=O)c1cc(NC(=O)c2cc(NC(=O)c3cc(NC(=O)CCCNC(=O)c4cc(NC(=O)c5cc(NC(=O)c6nccn6C)cn5C)cn4C)cn3C)cn2C)cn1C,> 100 µM (inactive),> 100 µM (inactive),> 100 µM (inactive),> 100 µM (inactive),> 100 µM (inactive),> 100 µM (inactive),> 100 µM (inactive),> 100 µM (inactive),> 100 µM (inactive),> 100 µM (inactive),> 100 µM (inactive),> 100 µM (inactive),> 100 µM (inactive),> 100 µM (inactive),> 100 µM (inactive),> 100 µM (inactive),> 100 µM (inactive),> 100 µM (inactive),> 100 µM (inactive)
COC(=O)/C(C#N)=C(\Nc1ccccc1)N1CCCC1,> 100 µM (inactive),> 100 µM (inactive),> 100 µM (inactive),> 100 µM (inactive),> 100 µM (inactive),> 100 µM (inactive),> 100 µM (inactive),> 100 µM (inactive),> 100 µM (inactive),> 100 µM (inactive),> 100 µM (inactive),> 100 µM (inactive),> 100 µM (inactive),> 100 µM (inactive),> 100 µM (inactive),> 100 µM (inactive),> 100 µM (inactive),> 100 µM (inactive),> 100 µM (inactive)
Cc1cc(C)c2c(=O)n(CC(O)CN(Cc3ccccc3)CC(O)Cn3sc4nc(C)cc(C)c4c3=O)sc2n1 (stereo unspecified),16.9 µM (inactive),14.4 µM (inactive),17.7 µM (inactive),3.25 µM (inactive),16.5 µM (inactive),18 µM (inactive),14.3 µM (inactive),18.9 µM (inactive),17.2 µM (inactive),16.4 µM (inactive),17.9 µM (inactive),27.8 µM (inactive),10 µM (inactive),16.2 µM (inactive),23.2 µM (inactive),19.9 µM (inactive),14.6 µM (inactive),17.7 µM (inactive),15.5 µM (inactive)
O=C1C(Cl)C(c2cc3cc(Br)ccc3nc2Cl)N1c1ccc(F)c(Cl)c1 (stereo unspecified),2.77 µM (inactive),1.76 µM (inactive),1.51 µM (inactive),0.594 µM (active),8.53 µM (inactive),3.83 µM (inactive),11 µM (inactive),6.14 µM (inactive),11.4 µM (inactive),9.02 µM (inactive),7.03 µM (inactive),14.6 µM (inactive),0.275 µM (active),4.13 µM (inactive),6.75 µM (inactive),12.6 µM (inactive),1.09 µM (active),0.957 µM (active),8.61 µM (inactive)
O=C(O)CO/N=C1/C(=C2/C(=O)Nc3ccccc32)Nc2ccccc21,82.6 µM (inactive),86.3 µM (inactive),70.3 µM (inactive),41.4 µM (inactive),> 100 µM (inactive),31.6 µM (inactive),30.5 µM (inactive),> 100 µM (inactive),> 100 µM (inactive),24.1 µM (inactive),50.9 µM (inactive),50.8 µM (inactive),52.6 µM (inactive),18.8 µM (inactive),22.4 µM (inactive),> 100 µM (inactive),63.4 µM (inactive),22.9 µM (inactive),27 µM (inactive)
